Results from US12692396B2, “Fluorescent labeling agent and fluorescent dye” (artience Co., Ltd., priority 2020, dated 2026).

Tests used:
[1] = tested on: Human epithelium cancer cells A431; test: Evaluation of cell toxicity of fluorescent labeling agent (cell counting kit-8, absorbance at 450 nm); type: cell-based; details: labeling agent left one hour, absorbance relative to DMSO medium solution regarded as one
Method: <Evaluation of Cell Toxicity of Fluorescent Labeling Agent>
(§1) Human epithelium cancer cells A431 were seeded in a 96-well plate (1×10^4 cells/well). Next, the A431 were cultured for 24 hours using an RPMI 1640 medium to which 10% fetal bovine serum (FBS) and 1% penicillin-streptomycin had been added in an incubator (37° C., 5% CO2-containing Air, humidified environment). As the RPMI 1640 medium, an RPMI-164-Medium manufactured by Sigma-Aldrich Inc. was used.
After cultivation, the medium was removed, the fluorescent labeling agents prepared in Examples 83 to 123 and Comparative Examples 25 to 37 and an RPMI 1640 medium containing 1% dimethyl sulfoxide (DMSO medium solution) were added thereto. These were left to stand in the incubator for one hour and then washed in the RPMI 1640 medium. 10 μL of a cell counting kit-8 (manufactured by Dojindo Laboratories.) was added to each well and left to stand in the incubator (37° C., 5% CO2-containing Air, humidified environment) for one hour. Next, the absorbance at 450 nm was measured using a plate reader (SPARK, manufactured by Tecan Trading AG).
The relative value of the absorbance of each fluorescent labeling agent when the absorbance of the well to which the DMSO medium solution had been added was regarded as one was calculated and evaluated based on the following standards. […] At the time of calculating the relative value of the absorbance of the fluorescent labeling agent, a value obtained by subtracting the absorbance before the addition of the cell counting kit-8 (manufactured by Dojindo Laboratories.) from the measured absorbance was used.
• P (Pass): 0.8 or more • F (Failure): Less than 0.8 <Evaluation of Fluorescence Intensity of Fluorescent Labeling Agent>

[2] = tested on: Human epithelium cancer cells A431; test: Evaluation of fluorescence intensity of fluorescent labeling agent in labeled cells (plate reader); type: cell-based; details: one hour, FIG. 1, compared with fluorescent labeling agents 68 and 75
Method: as §1, with “environment).” for “environment). As the RPMI 1640 medium, an RPMI-164-Medium manufactured by Sigma-Aldrich Inc. was used.”
After cultivation, the medium was removed, and the fluorescent labeling agents prepared in Examples 127 to 167 and Comparative Examples 25 to 37 were added thereto and left to stand in the incubator for one hour. Next, these were washed in the RPMI 1640 medium. The fluorescence intensities were evaluated in fluorescence wavelength ranges shown in Table 22 using the plate reader (SPARK, manufactured by Tecan Trading AG).

phospholipids = test: Evaluation of property of fluorescent dye being accumulated in phospholipids (labeling agent intensity / dye solution intensity); type: cell-based, Human; details: A431 cells, one hour; relative value, comparative compound 12 regarded as one; fluorescent wavelength range as in Table 22 (780-800 nm, 630-650 nm in last line)
Method: <Evaluation of Property of Fluorescent Dye being Accumulated in Phospholipids>
The property of each dye being accumulated in phospholipids was calculated from the fluorescence intensity integral value obtained from the fluorescent spectrum of the dye solution and the fluorescence intensity obtained from the fluorescence intensity of the fluorescent labeling agent using an expression (1). The relative value of the property of each fluorescent labeling agent being accumulated in phospholipids when the property of the comparative compound 12 being accumulated in phospholipids was regarded as one was calculated and evaluated based on the following standards. In a case where the relative value is evaluated as 3 or more, it can be said that each fluorescent dye has a favorable property of being accumulated in phospholipids.
• 4: The property of being accumulated in phospholipids is 4 or more. • 3: The property of being accumulated in phospholipids is 2 or more and less than 4. • 2: The property of being accumulated in phospholipids is 1 or more and less than 2. • 1: The property of being accumulated in phospholipids is less than 1. Property of being accumulated in phospholipids=fluorescence intensity of fluorescent labeling agent/fluorescence intensity of dye solution (1)

[3] = tested on: Human epithelium cancer cells A431; test: Evaluation of visibility of cell (fluorescent microscope); type: cell-based; parameters: key: P (Pass): Clear; F (Failure): Unclear; details: A431 cells, labeling agent left one hour
Method: <Evaluation of Visibility of Cell>
as §1, with “The” for “Next, the”, “environment).” for “environment). As the RPMI 1640 medium, an RPMI-164-Medium manufactured by Sigma-Aldrich Inc. was used.”
After cultivation, the medium was removed, and the fluorescent labeling agents prepared in Examples 127 to 189 and Comparative Examples 25 to 37 were added thereto and left to stand in the incubator for one hour. Next, these were washed in the RPMI 1640 medium. The dark field images and fluorescent images of the cells were observed using a fluorescent microscope (manufactured by Keyence Corporation, BZ-X800) equipped with an excitation filter for an appropriate wavelength and a fluorescent filter and evaluated based on the following standards.
• P (Pass): Clear • F (Failure): Unclear
The evaluation results of the visibility of the cells labeled with the fluorescent labeling agents 1, 15, 19, 24, 25, 68, and 75 are sequentially shown in FIGS. 2 to 8 (magnification: 10 times, optical uptake time: 1 second).
The evaluation results of the visibility of the cells labeled with the fluorescent labeling agents 42 and 53 are sequentially shown in FIGS. 9 to 10 (magnification: 40 times, optical uptake time: 1 second).
From what has been described above, it has been clarified that the fluorescent labeling agent according to the embodiment of the present invention has excellent characteristics as a fluorescent labeling agent.

How did the Cell toxicity [1] turn out when `CCOc1cccc2c1C1=NC2=Nc2c3c(OCC)cccc3c3[n]2[Al]([O][Si](C)(C)CCCN)[n]2c(c4cccc(OCC)c4c2=NC2=NC(=N3)c3c(OCC)cccc32)=N1` [Fluorescent dye 1] was run?
The Cell toxicity was “P (P (Pass): 0.8 or more)”.

And the “fluorescence intensity of fluorescent labeling agent” value [2]?
Its value is “high fluorescence intensities”.

And the “Property of being accumulated in phospholipids” value (“Property of being accumulated” below) (phospholipids)?
Its value is 4 (4: The property of being accumulated in phospholipids is 4 or more.).

And the Cell visibility [3]?
The Cell visibility was “P”.

How did the Cell toxicity [1] turn out when `CCOc1cccc2c1C1=NC2=Nc2c3c(OCC)cccc3c3[n]2[Al]([O]P(=O)(CCC(=O)O)c2ccccc2)[n]2c(c4cccc(OCC)c4c2=NC2=NC(=N3)c3c(OCC)cccc32)=N1` (centres unmarked) [Fluorescent dye 15] was run?
The Cell toxicity was “P (P (Pass): 0.8 or more)”.

And the “fluorescence intensity of fluorescent labeling agent” value [2]?
Its value is “high fluorescence intensities”.

What about the “Property of being accumulated” value (phospholipids) of the same compound?
The value was 4 (4: The property of being accumulated in phospholipids is 4 or more.).

And the Cell visibility [3]?
The Cell visibility was “P”.

What does the source list for `CCOc1cccc2c1C1=NC2=Nc2c3c(OCC)cccc3c3[n]2[Al]([O]P(=O)(CCC(=O)O)Oc2ccccc2)[n]2c(c4cccc(OCC)c4c2=NC2=NC(=N3)c3c(OCC)cccc32)=N1` (centres unmarked) [Fluorescent dye 18]?
Cell toxicity [1]: P (P (Pass): 0.8 or more); Property of being accumulated in phospholipids (phospholipids): 4 (4: The property of being accumulated in phospholipids is 4 or more.); Cell visibility [3]: P

How did the Cell toxicity [1] turn out when `CC[N+](CC)(CC)CCC[Si](C)(C)[O][Al]1[n]2c3c4cc(-c5ccccc5)ccc4c2N=C2N=C(N=c4c5cc(-c6ccccc6)ccc5c([n]41)=NC1=NC(=N3)c3ccc(-c4ccccc4)cc31)c1ccc(-c3ccccc3)cc12.[I-]` [Fluorescent dye 20] was run?
Its Cell toxicity is “P (P (Pass): 0.8 or more)”.

What about the “Property of being accumulated” value (phospholipids) of the same compound?
The value was 4 (4: The property of being accumulated in phospholipids is 4 or more.).

What about the Cell visibility [3] of the same compound?
Its Cell visibility is “P”.

What does the source list for `C[Si](C)(CCC[N+](c1ccccc1)(c1ccccc1)c1ccccc1)[O][Al]1[n]2c3c4cc(C5CCCCC5)c(C5CCCCC5)cc4c2N=C2N=C(N=c4c5cc(C6CCCCC6)c(C6CCCCC6)cc5c([n]41)=NC1=NC(=N3)c3cc(C4CCCCC4)c(C4CCCCC4)cc31)c1cc(C3CCCCC3)c(C3CCCCC3)cc12.[I-]` [Fluorescent dye 21]?
Cell toxicity [1]: P (P (Pass): 0.8 or more); Property of being accumulated in phospholipids (phospholipids): 4 (4: The property of being accumulated in phospholipids is 4 or more.); Cell visibility [3]: P

With `O=C(O)C(F)(F)C(F)(F)C(=O)NCCc1ccc(S(=O)(=O)[O][Al]2[n]3c4c5cc(C(F)(F)F)ccc5c3N=C3N=C(N=c5c6cc(C(F)(F)F)ccc6c([n]52)=NC2=NC(=N4)c4ccc(C(F)(F)F)cc42)c2ccc(C(F)(F)F)cc23)cc1` [Fluorescent dye 27] as the compound, how does the Cell toxicity [1] read?
Its Cell toxicity is “P (P (Pass): 0.8 or more)”.

What about the “Property of being accumulated” value (phospholipids) of the same compound?
Its value is 4 (4: The property of being accumulated in phospholipids is 4 or more.).

And the Cell visibility [3]?
Its Cell visibility is “P”.

With `CCCCCCCCCCCCCCCCCCc1ccc2c(c1)C1=NC2=Nc2c3cc(CCCCCCCCCCCCCCCCCC)ccc3c3[n]2[Al]([O]S(=O)(=O)c2ccc(CCNC(=O)C(CC(=O)O)OC(C)=O)cc2)[n]2c(c4ccc(CCCCCCCCCCCCCCCCCC)cc4c2=NC2=NC(=N3)c3cc(CCCCCCCCCCCCCCCCCC)ccc32)=N1` (centres unmarked) [Fluorescent dye 28] as the compound, how does the Cell toxicity [1] read?
Its Cell toxicity is “P (P (Pass): 0.8 or more)”.

What about the “Property of being accumulated” value (phospholipids) of the same compound?
Its value is 4 (4: The property of being accumulated in phospholipids is 4 or more.).

And the Cell visibility [3]?
The Cell visibility was “P”.

Which results are given for `CC(C)C(CC(=O)O)C(=O)NCCc1ccc(S(=O)(=O)[O][Al]2[n]3c4c5cc(C(C)(C)C)ccc5c3N=C3N=C(N=c5c6cc(C(C)(C)C)ccc6c([n]52)=NC2=NC(=N4)c4ccc(C(C)(C)C)cc42)c2ccc(C(C)(C)C)cc23)cc1` (centres unmarked) [Fluorescent dye 29]?
Cell toxicity [1]: P (P (Pass): 0.8 or more); Property of being accumulated in phospholipids (phospholipids): 4 (4: The property of being accumulated in phospholipids is 4 or more.); Cell visibility [3]: P
